How the values were obtained:
Assay in all cases: drug sensitivity score (DSS3, normalised partial AUC of % inhibition dose-response) (DSS (score)); higher = more sensitive (stronger inhibition of viability); extreme values may be limits of the assay
FMOC22 = patient-derived mucinous ovarian cancer cells; conditions: 72 h; library: FO5A; assay format: 2D, 384-well, CellTiter-Glo
Procedure, shortened: (§1)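 The drug sensitivity score is calculated as a partial area under the percent-inhibition dose-response curve, divided by the log of the upper asymptote; higher scores mean more sensitive. For this score, early-passage (under 10) patient-derived ovarian cancer cells were exposed on 384-well flat clear-bottom plates to compounds at five concentrations across a 10,000-fold range for 72 h at 37 °C, 5% CO2. Viability was read with CellTiter-Glo and processed in Breeze.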

FMOC06 = patient-derived mucinous ovarian cancer cells; conditions: 72 h; library: FO5A; assay format: 2D, 384-well, CellTiter-Glo
Procedure, shortened: as §1

FMOC25_1 = patient-derived low-grade serous ovarian cancer cells; conditions: 72 h; library: FO4B; assay format: 2D, 384-well, CellTiter-Glo
Procedure, shortened: as §1

FMOC09 = patient-derived high-grade serous ovarian cancer cells; conditions: 72 h; library: FO5A; assay format: 2D, 384-well, CellTiter-Glo
Procedure, shortened: as §1

FMOC02_3 = patient-derived low-grade serous ovarian cancer cells; conditions: 72 h; library: FO5A; assay format: 2D, 384-well, CellTiter-Glo
Procedure, shortened: as §1

FMOC02_2 = patient-derived low-grade serous ovarian cancer cells; conditions: 72 h; library: FO5A; assay format: 2D, 384-well, CellTiter-Glo
Procedure, shortened: as §1

FMOC24 = patient-derived high-grade serous ovarian cancer cells; conditions: 72 h; library: FO5A; assay format: 2D, 384-well, CellTiter-Glo
Procedure, shortened: as §1

FMOC03 = patient-derived mucinous ovarian cancer cells; conditions: 72 h; library: FO5A; assay format: 2D, 384-well, CellTiter-Glo
Procedure, shortened: as §1

FMOC14 = patient-derived high-grade serous ovarian cancer cells; conditions: 72 h; library: FO5A; assay format: 2D, 384-well, CellTiter-Glo
Procedure, shortened: as §1

FMOC25_2 = patient-derived low-grade serous ovarian cancer cells; conditions: 72 h; library: FO5A; assay format: 2D, 384-well, CellTiter-Glo
Procedure, shortened: as §1

Compound | drug sensitivity score (FMOC22) | drug sensitivity score (FMOC06) | drug sensitivity score (FMOC25_1) | drug sensitivity score (FMOC09) | drug sensitivity score (FMOC02_3) | drug sensitivity score (FMOC02_2) | drug sensitivity score (FMOC24) | drug sensitivity score (FMOC03) | drug sensitivity score (FMOC14) | drug sensitivity score (FMOC25_2)
CO[C@H]1C(=O)[C@]2(C)[C@@H](OC)C[C@H]3OC[C@@]3(OC(C)=O)[C@H]2[C@H](OC(=O)c2ccccc2)[C@]2(O)C[C@H](OC(=O)[C@H](O)[C@@H](NC(=O)OC(C)(C)C)c3ccccc3)C(C)=C1C2(C)C [Cabazitaxel] | 15.2 | 11.3 | 12 | 13.5 | 19.9 | 12.6 | 0.3 | 16 | 0 | 17.3
CC[C@@H]1C(=O)N(C)c2cnc(Nc3ccc(C(=O)N[C@H]4CC[C@H](N5CCN(CC6CC6)CC5)CC4)cc3OC)nc2N1C(C)C [Volasertib] | 3.9 | 1.2 | 3.2 | 5.1 | 7.6 | 6.1 | 2.9 | 3.5 | 0.4 | 8.5
O=C(c1cc(Cc2n[nH]c(=O)c3ccccc23)ccc1F)N1CCN(C(=O)C2CC2)CC1 [Olaparib] | 2.4 | 3.6 | 3 | 3.2 | 5 | 1.7 | 4.6 | 1.4 | 4.4 | 3.2
CC[C@@]1(O)C(=O)OCc2c1cc1n(c2=O)Cc2cc3c(CN(C)C)c(O)ccc3nc2-1 [Topotecan] | 15.6 | 8.2 | 12.7 | 8.4 | 15.3 | 9.7 | 7 | 8.1 | 9.4 | 16.8
CC/C(=C(\c1ccc(O)cc1)c1ccc(OCCN(C)C)cc1)c1ccccc1 [4-hydroxytamoxifen] | 5.7 | 7.3 | 2 | 5.1 | 6.4 | 6.8 | 7.3 | 6.1 | 6.1 | 3.2
O=C(Nc1cccc(Nc2ncc(Br)c(NCCc3cnc[nH]3)n2)c1)N1CCCC1 [BX-912] | 2.4 | 4.4 | 6.2 | 2 | 7.6 | 5 | 4.65 | 2.4 | 0.5 | 7.6
CN[C@@H]1C[C@H]2O[C@@](C)([C@@H]1OC)n1c3ccccc3c3c4c(c5c6ccccc6n2c5c31)C(=O)N[C@H]4O [UCN-01] | 15.9 | 23.2 | 31 | 20.7 | 33.7 | 33.1 | 24.4 | 17.2 | 19.8 | 34.4
O=C1CN2Cc3c(ccc(Cl)c3Cl)N=C2N1 [Anagrelide] | 0 | 0.7 | 0 | 18.7 | 0 | 0 | 0 | 0 | 0 | 0
Nc1cc(C(F)(F)F)c(-c2cc(N3CCOCC3)nc(N3CCOCC3)n2)cn1 [Buparlisib] | 6.3 | 8.7 | 11.5 | 6.7 | 13.3 | 11.7 | 2.25 | 8.6 | 4.2 | 10.8
CNC(=O)c1nn(C)c2c1C(C)(C)Cc1cnc(Nc3ccc(N4CCN(C)CC4)cc3)nc1-2 [Milciclib] | 6.2 | 6.8 | 8.5 | 7.6 | 15.1 | 12.5 | 8.25 | 8.6 | 6.3 | 13.1
CC(C)C[C@@H](C(=O)N[C@H](C(=O)OC1CCCC1)c1ccccc1)[C@H](O)C(=O)NO [Tosedostat] | 1.8 | 11.9 | 6.2 | 6.6 | 11 | 7.2 | 19.7 | 7.6 | 5.3 | 4.7
CCS(=O)(=O)c1cccc(-c2cc(C(=O)NC3CCN(C)CC3)c(C)c3[nH]c4ncc(C)cc4c23)c1 [TAK-901] | 1.2 | 2 | 2.2 | 7 | 5.3 | 1 | 1.15 | 1.2 | 0 | 5.7
O=C(O)c1ccc2c(c1)nc(Nc1cccc(Cl)c1)c1ccncc12 [Silmitasertib] | 6 | 6.9 | 3.6 | 4.5 | 6.3 | 4.1 | 2.55 | 7 | 4.9 | 5.2
CCn1c(=O)c(-c2ccc(Cl)cc2Cl)cc2cnc(Nc3ccc(N4CCNCC4)c(F)c3)nc21 [FRAX486] | 0.1 | 1.7 | 3.2 | 3.7 | 14.7 | 12.2 | 9.45 | 2.4 | 0.2 | 11.9
COc1cccc2c1C(=O)c1c(O)c3c(c(O)c1C2=O)C[C@@](O)(/C(CO)=N/NC(=O)CCCCCN1C(=O)C=CC1=O)C[C@@H]3O[C@H]1C[C@H](N)[C@H](O)[C@H](C)O1 [Aldoxorubicin] | 4.5 | 4.4 | 5.3 | 6.1 | 7.8 | 5 | 5.2 | 3.9 | 4.7 | 7.9
CS(=O)(=O)N1CCN(Cc2cc3nc(-c4cccc5[nH]ncc45)nc(N4CCOCC4)c3s2)CC1 [Pictilisib] | 5.1 | 10.6 | 12.9 | 11.9 | 16.1 | 16.8 | 5.35 | 9.4 | 9.2 | 14.3
Cn1cc(C2=Nc3cc(NC(=O)C(N)C4CCCCC4)cc4c3C2=CNNC4=O)cn1 (stereo not given) | 8.3 | 3 | 11.7 | 7.6 | 9.9 | 7.3 | 10.1 | 4.3 | 6.8 | 10.9

Compound | drug sensitivity score (FMOC22) | drug sensitivity score (FMOC06) | drug sensitivity score (FMOC25_1) | drug sensitivity score (FMOC09) | drug sensitivity score (FMOC02_3) | drug sensitivity score (FMOC02_2) | drug sensitivity score (FMOC24) | drug sensitivity score (FMOC03) | drug sensitivity score (FMOC14) | drug sensitivity score (FMOC25_2)
COc1cc(OC)c(/C=C/S(=O)(=O)Cc2ccc(OC)c(NCC(=O)O)c2)c(OC)c1 [Rigosertib] | 16.1 | 14.3 | 14.3 | 15.4 | 20.5 | 16.4 | 6.5 | 18.2 | 0.1 | 12
Cc1[nH]c2ccccc2c1CCNCc1ccc(/C=C/C(=O)NO)cc1 [Panobinostat] | 9.1 | 12.8 | 11.2 | 5.5 | 10.7 | 12.6 | 13.3 | 11.1 | 15.4 | 15.2
CNC(=O)CN1CCC(Oc2cc3c(Nc4cccc(Cl)c4F)ncnc3cc2OC)CC1 [Sapitinib] | 0.9 | 0.3 | 9.4 | 10.4 | 13.8 | 14 | 0.2 | 14.7 | 4.2 | 10
Nc1ccccc1NC(=O)c1ccc(CNc2nccc(-c3cccnc3)n2)cc1 [Mocetinostat] | 8 | 10.9 | 9.6 | 3.7 | 11.2 | 12.6 | 11.4 | 11.1 | 10.1 | 9.2
CC(C)c1cc(-c2n[nH]c(=O)n2-c2ccc3c(ccn3C)c2)c(O)cc1O [Ganetespib] | 14.3 | 3.3 | 11.6 | 12.3 | 19.7 | 16.2 | 8.9 | 11.3 | 10.9 | 17.5
CNc1ncc2cc(-c3cc(NC(=O)NCCC(C)(C)C)c(F)cc3C)c(C)nc2n1 | 9.3 | 11.8 | 11.1 | 9.5 | 16.9 | 12.5 | 1.7 | 12 | 1.3 | 14.8
Nc1nc2[nH]cnc2c(=S)[nH]1 [Thioguanine] | 0 | 0 | 5.3 | 0 | 4.3 | 3.2 | 0.95 | 0 | 0 | 6.3
C=CC(=O)N1CCC(Oc2cc3c(Nc4ccc(Cl)c(Cl)c4F)ncnc3cc2OC)CC1 [Poziotinib] | 0.8 | 6.1 | 10.5 | 16.7 | 21.8 | 24.2 | 2.1 | 24.6 | 6.5 | 20.3
CN1CC[C@H](c2c(O)cc(O)c3c(=O)cc(-c4ccccc4Cl)oc23)[C@H](O)C1 [Alvocidib] | 12.8 | 17 | 19.1 | 10.7 | 22.4 | 21.3 | 18.7 | 17.9 | 15.3 | 19.6
Cn1cnc2c(F)c(Nc3ccc(Br)cc3Cl)c(C(=O)NOCCO)cc21 [Selumetinib] | 7.2 | 14.6 | 7.3 | 10.6 | 13.7 | 12.9 | 0.4 | 11.4 | 1.3 | 8.1
CCOc1cc2ncc(C#N)c(Nc3ccc(OCc4ccccn4)c(Cl)c3)c2cc1NC(=O)/C=C/CN(C)C [Neratinib] | 2.3 | 2.2 | 8.7 | 9.8 | 18.3 | 14.1 | 1.1 | 12.3 | 2.5 | 16.5
COc1cc(Nc2ncc(F)c(Nc3ccc4c(n3)NC(=O)C(C)(C)O4)n2)cc(OC)c1OC [Tamatinib] | 0 | 0 | 7.2 | 0.7 | 9.6 | 13 | 5.3 | 2.5 | 0 | 8.7
CC(C)C[C@H](NC(=O)[C@H](CCc1ccccc1)NC(=O)CN1CCOCC1)C(=O)N[C@@H](Cc1ccccc1)C(=O)N[C@@H](CC(C)C)C(=O)[C@@]1(C)CO1 [Carfilzomib] | 20.1 | 22.4 | 21.6 | 21.6 | 24.6 | 18.7 | 27.4 | 18 | 23.6 | 25.5
CO[C@H]1C[C@@H]2CC[C@@H](C)[C@@](O)(O2)C(=O)C(=O)N2CCCC[C@H]2C(=O)O[C@H]([C@H](C)C[C@@H]2CC[C@@H](OC(=O)C(C)(CO)CO)[C@H](OC)C2)CC(=O)[C@H](C)/C=C(\C)[C@@H](O)[C@@H](OC)C(=O)[C@H](C)C[C@H](C)/C=C/C=C/C=C/1C [Temsirolimus] | 9.7 | 2.5 | 13.6 | 3.5 | 16.5 | 9.5 | 0.5 | 5.6 | 8.9 | 13.1
Nc1ncnc2c1nc(N)n2[C@@H]1O[C@H](CO)[C@@H](O)[C@H]1O [8-amino-adenosine] | 18.6 | 20.3 | 20.5 | 20.2 | 21.7 | 27.5 | 18.8 | 18.3 | 16 | 18.6
COC(=O)C[C@](O)(CCCC(C)(C)O)C(=O)O[C@@H]1C(OC)=C[C@]23CCCN2CCc2cc4c(cc2[C@H]13)OCO4 [Omacetaxine] | 15.3 | 19 | 23.8 | 19.1 | 23.8 | 20.2 | 23.6 | 16.7 | 21.9 | 24.6

Source: the supplement of paper PMC9938120
